Source: publication PMC11725774 (Cancer Research Communications, 2025)
Where two headings read alike, the source gives them in different places.

How the values were obtained:
JAK1 = target: T1, JAK1 (Homo sapiens, UniProt P23458); assay: Broad kinase inhibition screen, recombinant kinase; type: biochemical; conditions: broad kinase inhibition screens
T1 construct: purchased Thermo Fisher Scientific or Reaction Biology, Inc. (screening service)
Text: (§1) Data from these screens are available on request.

JAK2 = target: T2, JAK2 (Homo sapiens, UniProt O60674); assay: Broad kinase inhibition screen, recombinant kinase; type: biochemical; conditions: broad kinase inhibition screens
T2 construct: purchased Thermo Fisher Scientific or Reaction Biology, Inc. (screening service)
Text: as §1

RSK-2 = target: T3, RSK-2 (Homo sapiens, UniProt P51812); assay: Broad kinase inhibition screen, recombinant kinase; type: biochemical; conditions: broad kinase inhibition screens
T3 construct: purchased Thermo Fisher Scientific or Reaction Biology, Inc. (screening service)
Text: as §1

SYK = target: T4, SYK (Homo sapiens, UniProt P43405); assay: Broad kinase inhibition screen, recombinant kinase; type: biochemical; conditions: broad kinase inhibition screens
T4 construct: purchased Thermo Fisher Scientific or Reaction Biology, Inc. (screening service)
Text: as §1

TAK1 = target: T5, TAK1 (Homo sapiens, UniProt O43318); assay: Broad kinase inhibition screen, recombinant kinase; type: biochemical; conditions: broad kinase inhibition screens
T5 construct: purchased Thermo Fisher Scientific or Reaction Biology, Inc. (screening service)
Text: as §1

MOLM-14 cells (parental) = assay: Growth inhibition of AML cell line; type: cell-based, human; conditions: Homo sapiens, MOLM-14
Method: MV-4-11 cells expressing NRAS^G12D were prepared by transduction with a lentiviral vector encoding the NRAS^G12D mutation. Assays using a panel of parental Ba/F3 into which an additional copy of either WT or a mutant form of FLT3 was introduced were performed at Kyinno Biotechnology Co., Ltd. All cell lines were short tandem repeat authenticated at ATCC or at DSMZ when originally obtained, and no further authentication was done after receipt of the cells in the laboratory.
Assays using Ba/F3 cells expressing WT and mutant forms of FLT3 were performed by Kyinno Biotechnology. The cells were cultured in the medium recommended by the source for each cell line. Growth inhibition assays were performed using either Cell Titer 96 Aqueous One Solution Cell Proliferation assay (Promega, # G3581) or CCK8 (Dojindo, # CK-04). […] IC50 values were determined from growth inhibition curves fitted using GraphPad Prism and a nonlinear regression model with sigmoidal dose response. Unless otherwise indicated, data are presented as mean ± SEM.

TUS/R line 1 (MOLM-14) = assay: Growth inhibition of TUS-resistant subline; type: cell-based; conditions: Homo sapiens, MOLM-14, read-out: IC50 (nmol/L), Mean ± SEM, TUS/R line 1
TUS/R line 2 (MOLM-14) = assay: Growth inhibition of TUS-resistant subline; type: cell-based; conditions: Homo sapiens, MOLM-14, read-out: IC50 (nmol/L), Mean ± SEM, TUS/R line 2
TUS/R line 3 (MOLM-14) = assay: Growth inhibition of TUS-resistant subline; type: cell-based, human; conditions: Homo sapiens
[1] = tested on: p-JAK1, p-JAK2, p-STAT3, p-STAT5 in MOLM-14 cells cocultured with HS-5 cells; assay: HS-5 stromal coculture Western blot; type: cell-based, human; conditions: concentrations <1 μmol/L; MOLM-14 cocultured with HS-5
Method: Cells were treated as described in respective Results sections and then lysed with RIPA buffer. Western blot analyses were performed with antibodies capable of detecting both total and phosphorylated forms of each kinase purchased from commercial sources. Information on the antibodies used is provided in the Supplementary Materials section.
HS-5 cells were obtained from ATCC. The HS-5 stromal cells (5 × 10^5 cells/well) were seeded into six-well plates, and 24 hours later, MOLM-14 cells (1 × 10^6 cells/well) were seeded into the same plate and then cultured for 48 hours. Cultures were then exposed to test drugs for 2 hours, harvested, and lysates were prepared for Western blotting. For stimulation studies, MOLM-14 or KG-1a cells were seeded at 5.0 to 6.0 × 10^6 cells/well into six-well plates in 2 mL medium. Cells were stimulated with 500 μg/mL fibrinogen (Sigma-Aldrich, Catalog # F3879) for 1 hour at 37°C. Alternatively, they were treated with 10 μg/mL IgG (Invitrogen, Catalog # 31154) for 10 minutes on ice followed by IgG cross-linking with 1 μg/mL anti–human IgG antibody for 10 minutes on ice. After these incubations, the media were removed and the cells were washed with cold PBS, lysed, and analyzed by Western blotting.

[2] = Pharmacokinetics and tissue distribution in mice; type: in vivo
Pharmacokinetics in dog = type: in vivo
Plasma protein binding = type: in vitro ADME; conditions: mouse, rat, dog, and human plasma
[3] = Metabolism by liver microsomes; type: in vitro ADME, human
[4] = Repeat daily dose toxicity in dogs; type: in vivo
Text: In both species, all adverse events were reversible. There were no alterations in clinical chemistry parameters. Neuropharmacology and respiratory function assessment in rats disclosed no concerns.

[5] = tested on: MOLM-13 cells inoculated orthotopically; assay: Orthotopic AML xenograft survival; type: in vivo, NOD/SCID mice; conditions: oral TUS 30 mg/kg every day; vehicle 37 days
Method: (§2) For subcutaneous inoculation, MV-4-11 and MOLM-14 FLT3-ITD/F691L cells were mixed with BD Matrigel Matrix (1:0.5 ratio), and 2 to 5 × 10^6 cells in 0.15 mL were inoculated subcutaneously in NOD/SCID mice. Tumor size was assessed using a Vernier caliper 2 to 3 times weekly and volume was calculated using the formula for an ellipsoid sphere. For orthotopic inoculation, MOLM-14-Luc/GFP cells (2 × 10^6 cells in 0.03 mL PBS) or MV-4-11-Luc and MOLM-13-Luc cells (1 × 10^6 cells in 50 μL Hank’s balanced salt solution) were injected into the left tibia of NOD/SCID mice. Tumor growth was monitored weekly by bioluminescence imaging using an IVIS Lumina Series III In vivo imaging system (PerkinElmer Inc.). The Institutional Animal Care and Use Committee of the Hanmi Research Center approved the animal study protocol.
(§3) For both subcutaneous and bone marrow orthotopic models, after confirming tumor formation by palpation or bioluminescence imaging, mice were randomly assigned into experimental groups.
(§4) A P value less than 0.05 was considered statistically significant.

[6] = tested on: MOLM-14 cells inoculated orthotopically; assay: Orthotopic AML xenograft survival; type: in vivo, NOD/SCID mice; conditions: oral TUS 30 mg/kg every day; vehicle 17 days
Method: as §2, §3, §4

[7] = tested on: MV-4-11 cells inoculated orthotopically; assay: Orthotopic AML xenograft survival; type: in vivo, NOD/SCID mice; conditions: oral TUS 30 mg/kg every day; vehicle 42 days
Method: as §2, §3, §4

[8] = mouse, plasma, mice, oral doses of 1, 3, 10, and 30 mg/kg

T3 sequence (P51812 whole entry): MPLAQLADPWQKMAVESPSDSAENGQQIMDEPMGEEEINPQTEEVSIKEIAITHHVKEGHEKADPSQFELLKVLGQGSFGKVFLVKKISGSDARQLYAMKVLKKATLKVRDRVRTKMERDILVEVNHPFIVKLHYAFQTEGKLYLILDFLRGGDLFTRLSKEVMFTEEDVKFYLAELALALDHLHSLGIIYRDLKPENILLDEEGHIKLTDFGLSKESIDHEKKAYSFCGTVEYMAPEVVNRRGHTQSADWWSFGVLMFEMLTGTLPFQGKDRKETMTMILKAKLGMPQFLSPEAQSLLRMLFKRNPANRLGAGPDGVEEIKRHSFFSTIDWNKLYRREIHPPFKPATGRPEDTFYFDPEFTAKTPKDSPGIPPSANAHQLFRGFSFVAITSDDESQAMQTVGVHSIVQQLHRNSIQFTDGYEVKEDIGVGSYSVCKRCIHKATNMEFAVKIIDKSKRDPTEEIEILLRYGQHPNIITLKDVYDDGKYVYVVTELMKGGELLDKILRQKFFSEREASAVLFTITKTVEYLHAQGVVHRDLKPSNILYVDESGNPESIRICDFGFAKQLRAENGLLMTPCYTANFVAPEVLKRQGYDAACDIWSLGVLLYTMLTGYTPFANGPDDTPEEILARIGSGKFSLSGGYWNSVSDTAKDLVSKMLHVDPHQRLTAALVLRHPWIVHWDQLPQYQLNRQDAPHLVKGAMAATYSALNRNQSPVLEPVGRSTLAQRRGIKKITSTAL
T1 sequence (P23458 whole entry): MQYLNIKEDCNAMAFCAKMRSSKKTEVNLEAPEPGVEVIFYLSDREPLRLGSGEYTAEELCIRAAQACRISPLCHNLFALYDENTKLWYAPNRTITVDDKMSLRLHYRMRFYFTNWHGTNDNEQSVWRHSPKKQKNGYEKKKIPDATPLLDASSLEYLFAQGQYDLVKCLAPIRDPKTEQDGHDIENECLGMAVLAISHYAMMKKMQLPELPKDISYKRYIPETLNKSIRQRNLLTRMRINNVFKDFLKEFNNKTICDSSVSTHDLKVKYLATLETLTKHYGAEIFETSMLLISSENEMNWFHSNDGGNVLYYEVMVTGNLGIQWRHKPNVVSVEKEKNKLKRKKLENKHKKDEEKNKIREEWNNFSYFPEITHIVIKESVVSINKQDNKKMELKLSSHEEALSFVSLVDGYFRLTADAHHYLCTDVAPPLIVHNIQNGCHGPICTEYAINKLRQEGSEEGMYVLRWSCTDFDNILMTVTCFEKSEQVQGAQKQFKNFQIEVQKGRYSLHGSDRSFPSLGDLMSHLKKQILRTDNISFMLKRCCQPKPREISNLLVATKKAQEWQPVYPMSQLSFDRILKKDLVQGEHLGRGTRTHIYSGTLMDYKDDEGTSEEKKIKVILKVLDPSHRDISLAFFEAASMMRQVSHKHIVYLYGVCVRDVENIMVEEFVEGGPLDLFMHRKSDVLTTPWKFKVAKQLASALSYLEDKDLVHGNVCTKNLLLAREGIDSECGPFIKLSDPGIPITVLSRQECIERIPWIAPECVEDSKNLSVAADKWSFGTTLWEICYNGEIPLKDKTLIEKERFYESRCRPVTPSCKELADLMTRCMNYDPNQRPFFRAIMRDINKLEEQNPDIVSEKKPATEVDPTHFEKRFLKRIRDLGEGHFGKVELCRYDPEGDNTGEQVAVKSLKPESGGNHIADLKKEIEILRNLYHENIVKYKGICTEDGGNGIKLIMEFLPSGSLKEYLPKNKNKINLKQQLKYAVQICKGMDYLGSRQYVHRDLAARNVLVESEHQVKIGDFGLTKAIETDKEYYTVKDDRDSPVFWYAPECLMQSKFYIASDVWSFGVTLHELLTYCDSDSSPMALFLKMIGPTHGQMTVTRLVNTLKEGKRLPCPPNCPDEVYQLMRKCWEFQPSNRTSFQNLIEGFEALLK
T5 sequence (O43318 1-303 limits assumed): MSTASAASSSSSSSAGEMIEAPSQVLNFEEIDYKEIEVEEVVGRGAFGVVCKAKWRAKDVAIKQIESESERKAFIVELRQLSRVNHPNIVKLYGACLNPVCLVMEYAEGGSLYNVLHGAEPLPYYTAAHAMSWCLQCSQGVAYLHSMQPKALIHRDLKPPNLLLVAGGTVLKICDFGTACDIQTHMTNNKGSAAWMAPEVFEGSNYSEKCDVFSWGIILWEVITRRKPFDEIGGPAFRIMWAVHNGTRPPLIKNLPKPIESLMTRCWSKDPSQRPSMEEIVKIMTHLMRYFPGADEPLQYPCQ
T5 sequence (Q15750 437-504 partner limits assumed): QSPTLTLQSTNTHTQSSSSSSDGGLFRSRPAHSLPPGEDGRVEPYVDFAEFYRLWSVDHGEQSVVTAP
T2 sequence (O60674 whole entry): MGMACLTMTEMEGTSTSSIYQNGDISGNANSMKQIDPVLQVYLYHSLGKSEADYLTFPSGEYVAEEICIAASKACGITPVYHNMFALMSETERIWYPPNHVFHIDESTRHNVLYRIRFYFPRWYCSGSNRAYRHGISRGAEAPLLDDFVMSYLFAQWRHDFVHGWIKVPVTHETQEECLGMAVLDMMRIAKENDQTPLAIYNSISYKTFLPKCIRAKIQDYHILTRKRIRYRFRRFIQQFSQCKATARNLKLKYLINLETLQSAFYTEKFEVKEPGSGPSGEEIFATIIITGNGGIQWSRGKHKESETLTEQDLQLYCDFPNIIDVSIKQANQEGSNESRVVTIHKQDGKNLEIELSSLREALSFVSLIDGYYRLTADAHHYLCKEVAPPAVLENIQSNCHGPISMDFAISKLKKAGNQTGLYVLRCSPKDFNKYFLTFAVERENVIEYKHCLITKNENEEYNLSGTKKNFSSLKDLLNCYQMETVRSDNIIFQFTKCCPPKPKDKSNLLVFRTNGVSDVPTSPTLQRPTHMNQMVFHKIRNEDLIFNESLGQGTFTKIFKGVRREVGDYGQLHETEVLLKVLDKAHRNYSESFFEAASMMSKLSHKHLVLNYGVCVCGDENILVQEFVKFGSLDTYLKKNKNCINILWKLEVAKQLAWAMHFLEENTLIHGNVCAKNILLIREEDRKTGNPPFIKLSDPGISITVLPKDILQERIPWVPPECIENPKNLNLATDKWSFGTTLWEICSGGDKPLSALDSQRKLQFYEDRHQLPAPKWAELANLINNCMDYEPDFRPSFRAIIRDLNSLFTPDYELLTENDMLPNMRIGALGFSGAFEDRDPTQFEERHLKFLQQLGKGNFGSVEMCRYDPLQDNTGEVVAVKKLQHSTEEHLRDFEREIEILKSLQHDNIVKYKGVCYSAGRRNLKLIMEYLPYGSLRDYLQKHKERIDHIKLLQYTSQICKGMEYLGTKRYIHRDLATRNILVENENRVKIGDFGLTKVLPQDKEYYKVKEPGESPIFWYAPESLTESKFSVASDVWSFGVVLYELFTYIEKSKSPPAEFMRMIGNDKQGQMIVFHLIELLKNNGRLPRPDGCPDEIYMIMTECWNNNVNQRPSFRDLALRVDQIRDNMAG

**Q.** What does the source list for `Cc1ccc2c(-c3nc(Nc4cc(CN5C[C@@H](C)N[C@@H](C)C5)cc(C5CC5)c4)ncc3Cl)c[nH]c2c1` [TUS, Tuspetinib]?
**A.** IC50 (JAK1): 2.9 nM; IC50 (JAK2): 6.3 nM; IC50 (RSK-2): 9.7 nM; IC50 (SYK): 2.9 nM; IC50 (TAK1): 7 nM; IC50 (MOLM-14 cells (parental); growth inhibition, three independent experiments, read-out: IC50 (nmol/L), Mean ± SEM, MOLM-14 parental): 2.3 ± 0.6 nmol/L; GI50 (MOLM-14 cells (parental); mean ± SEM (Supplementary Table 6), read-out: GI50 (nM) Parental MOLM-14 (converted)): 2.3 ± 0.6 nM; GI50 (MOLM-14 cells (parental); mean ± SD (Supplementary Table 4), read-out: GI50): 2.9 ± 1.2 nM; IC50 (TUS/R line 1 (MOLM-14)): 183 ± 69.5 nmol/L; IC50 (TUS/R line 2 (MOLM-14)): 120 ± 29.4 nmol/L; GI50 (TUS/R line 3 (MOLM-14); MOLM-14, read-out: GI50 (nM) TUS/R line 3, mean ± SEM (Supplementary Table 6)): 108 ± 24 nM; IC50 (TUS/R line 3 (MOLM-14); MOLM-14, read-out: IC50 (nmol/L), Mean ± SEM, TUS/R line 3): 108 ± 24 nmol/L; inhibition of p-JAK1, p-JAK2, p-STAT3, or p-STAT5 [1]: Neither TUS nor gilteritinib inhibited; dose proportionality of systemic exposure ([2]; mice, oral 1 to 30 mg/kg): greater than dose proportional; clearance ([2]; mouse, plasma, male mice, single intravenous dose of 3 mg/kg): 5 mL/min/kg; Vd ([2]; mouse, plasma, male mice, single intravenous dose of 3 mg/kg, read-out: Vss): 2.4 L/kg; half-life ([2]; mouse, plasma, male mice, single intravenous dose of 3 mg/kg, read-out: terminal plasma half-life (converted)): 5.5 h; Tmax [2, 8]: 1 to 4 h; bioavailability [2, 8]: 21.4 to 47.2%; dose proportionality of AUC (Pharmacokinetics in dog): linearly proportional to dose; bioavailability (Pharmacokinetics in dog; in vivo, oral): 99%; Plasma protein binding (Plasma protein binding): high; metabolism by human liver microsomes [3]: metabolized by human liver microsomes; main toxicity findings ([4]; dogs, repeat daily dose up to 4 weeks): leucocyte depletion, decreased thymus and spleen weights, and tremors; cardiovascular effects ([4]; single dose and 4-week dog toxicology studies): No treatment-related cardiovascular effects; median survival [5]: 75 days; median survival [6]: 65 days; median survival [7]: 147 days
